In patent US20140094424A1, “MICROBICIDAL COMPOSITIONS AND METHODS OF PRODUCTION USE THEREOF” (priority 2011, published 2014):

Tests used:
[1] = test system: Penicillium notatum-KMO (R); assay: MBC (minimum bactericidal concentration) test in Wash NEXT reagent; format: cell-based; parameters: key to MBC test growth score: number = actual colony count; + full mat, − no growth
Procedure: The stock organisms were thawed and subbed prior to beginning the MBC test. Molds were subbed to SDA plates one week before, and the bacteria were subbed to TAT agar plates 24 hours prior to the start of the test. All plates were incubated at 32 degrees C.
For the molds, each organism was inoculated into 40 ml sterile saline in a centrifuge tube to create a density of MacFarland #5. Two serial dilutions of 1:100 were then made, resulting in 10^−2 and 10^−4 concentrations. Each dilution was vortexed before it was sampled, and sterile Eppendorf pipette tips were used to make each transfer. The 10^−4 dilution was spiral plated to yield the initial inoculum concentration.
MBC trays were set up with the prepared test reagent. Using a Matrix pipettor, 100 μl aliquots of reagent were distributed into the wells, diluting the amount of preservative from 100% to 10% increments, using unpreserved reagent as the diluent. In one row, 100% non-preserved reagent acted as a positive control and served as a benchmark for a full mat of growth. In well #12H, 100 μl unpreserved reagent was pipetted, and this well was not inoculated with organisms, as it served as the negative control. Once all of the trays were prepared, the prepared bacteria/mold suspensions were poured into the MBC inoculating trays. These were placed onto the reagent trays, and 0.01 ml inoculum was introduced into the 100 μl of reagent in each well.
This was done by dipping a sterile cotton swab into each well, and absorbing all of the liquid in the well. The swab was rolled onto a TAT agar plate ensuring that the entire swab touches the agar. Plates ware incubated at 32 degrees C. for 48 hours to 7 days, depending on the organism. Observations for growth were performed by a scoring matrix using + for a full mat, +/− for some growth, a numerical value for an actual colony count, and—for no growth.
Below are tables that contain the data obtained in Example 1. The MBC test is scored by (+) indicating a full grown mat of organisms, equivalent to the organisms in the unpreserved reagent. (+/−) indicates there is some kill evident disturbing that mat or bringing the quantities down to an almost countable level. An actual number is the actual number of colonies growing at that concentration of preservative. (−) indicates no growth found. The MBC trays were stored at room temperature for the entire test.
The materials and methods and analysis of the MBC test were the same as in Example 1.

[2] = test system: creatinine biosensor (creatinine amidohydrolase, creatinine amidinohydrolase and sarcosine oxidase); assay: Effect on enzymatic activity of a creatinine biosensor (rate of O2% decrease); format: biochemical; conditions: 210 μM gentamicin, FIG. 1
Procedure: In FIG. 1, the effects of various concentrations of gentamicin on the enzymatic activity of a creatinine biosensor (comprising the three enzymes creatinine amidohydrolase, creatinine amidinohydrolase and sarcosine oxidase) were determined. In FIG. 2, the effects of various concentrations of propionate on the enzymatic activity of a creatinine biosensor (comprising three enzymes) were determined.
In both instances, a decreasing rate of O2% is an indicator of enzyme activity; the faster the rate of O2% decrease, the higher enzymatic activity is.

Cc1cc(NS(=O)(=O)c2ccc(N)cc2)no1 [Sulfamethoxazole, sulfamethoxazole]
MBC test growth score ([1]; 10% preservative, 8 hour): +
MBC test growth score ([1]; 10% preservative, 24 hour): +
MBC test growth score ([1]; 10% preservative, 48 hour): +/−
MBC test growth score ([1]; 10% preservative, 72 hour): +
MBC test growth score ([1]; 10% preservative, 7 day): +
MBC test growth score ([1]; 10% preservative, 14 day): +/−
MBC test growth score ([1]; 20% preservative, 8 hour): +
MBC test growth score ([1]; 20% preservative, 24 hour): +
MBC test growth score ([1]; 20% preservative, 48 hour): +/−
MBC test growth score ([1]; 20% preservative, 72 hour): +/−
MBC test growth score ([1]; 20% preservative, 7 day): +/−
MBC test growth score ([1]; 20% preservative, 14 day): 31
MBC test growth score ([1]; 30% preservative, 8 hour): +
MBC test growth score ([1]; 30% preservative, 24 hour): +
MBC test growth score ([1]; 30% preservative, 48 hour): +/−
MBC test growth score ([1]; 30% preservative, 72 hour): +/−
MBC test growth score ([1]; 30% preservative, 7 day): +/−
MBC test growth score ([1]; 30% preservative, 14 day): 28
MBC test growth score ([1]; 40% preservative, 8 hour): +
MBC test growth score ([1]; 40% preservative, 24 hour): +
MBC test growth score ([1]; 40% preservative, 48 hour): +/−
MBC test growth score ([1]; 40% preservative, 72 hour): +/−
MBC test growth score ([1]; 40% preservative, 7 day): +/−
MBC test growth score ([1]; 40% preservative, 14 day): 25
MBC test growth score ([1]; 50% preservative, 8 hour): +
MBC test growth score ([1]; 50% preservative, 24 hour): +
MBC test growth score ([1]; 50% preservative, 48 hour): +/−
MBC test growth score ([1]; 50% preservative, 72 hour): +/−
MBC test growth score ([1]; 50% preservative, 7 day): +/−
MBC test growth score ([1]; 50% preservative, 14 day): 18
MBC test growth score ([1]; 60% preservative, 8 hour): +
MBC test growth score ([1]; 60% preservative, 24 hour): +
MBC test growth score ([1]; 60% preservative, 48 hour): +/−
MBC test growth score ([1]; 60% preservative, 72 hour): +/−
MBC test growth score ([1]; 60% preservative, 7 day): +/−
MBC test growth score ([1]; 70% preservative, 8 hour): +
MBC test growth score ([1]; 70% preservative, 24 hour): +
MBC test growth score ([1]; 70% preservative, 48 hour): +/−
MBC test growth score ([1]; 70% preservative, 72 hour): 18
MBC test growth score ([1]; 70% preservative, 7 day): 9
MBC test growth score ([1]; 70% preservative, 14 day): 10
MBC test growth score ([1]; 80% preservative, 8 hour): +
MBC test growth score ([1]; 80% preservative, 24 hour): +
MBC test growth score ([1]; 80% preservative, 48 hour): +/−
MBC test growth score ([1]; 80% preservative, 7 day): 8
MBC test growth score ([1]; 80% preservative, 14 day): 6
MBC test growth score ([1]; 90% preservative, 8 hour): +
MBC test growth score ([1]; 90% preservative, 24 hour): +
MBC test growth score ([1]; 90% preservative, 48 hour): +/−
MBC test growth score ([1]; 90% preservative, 72 hour): 10
MBC test growth score ([1]; 90% preservative, 7 day): 7
MBC test growth score ([1]; 90% preservative, 14 day): 3
MBC test growth score ([1]; 100% preservative, 8 hour): +
MBC test growth score ([1]; 100% preservative, 24 hour): +
MBC test growth score ([1]; 100% preservative, 48 hour): +/−
MBC test growth score ([1]; 100% preservative, 72 hour): 7
MBC test growth score ([1]; 100% preservative, 7 day): 4
MBC test growth score ([1]; 100% preservative, 14 day): 2

gentamicin
MBC test growth score ([1]; 10% preservative, 8 hour): +
MBC test growth score ([1]; 10% preservative, 24 hour): +
MBC test growth score ([1]; 10% preservative, 48 hour): +/−
MBC test growth score ([1]; 10% preservative, 72 hour): +/−
MBC test growth score ([1]; 10% preservative, 7 day): +/−
MBC test growth score ([1]; 10% preservative, 14 day): +/−
MBC test growth score ([1]; 20% preservative, 8 hour): +
MBC test growth score ([1]; 20% preservative, 24 hour): +
MBC test growth score ([1]; 20% preservative, 48 hour): +/−
MBC test growth score ([1]; 20% preservative, 72 hour): +/−
MBC test growth score ([1]; 20% preservative, 7 day): +/−
MBC test growth score ([1]; 20% preservative, 14 day): +/−
MBC test growth score ([1]; 30% preservative, 8 hour): +
MBC test growth score ([1]; 30% preservative, 24 hour): +
MBC test growth score ([1]; 30% preservative, 48 hour): +/−
MBC test growth score ([1]; 30% preservative, 72 hour): +/−
MBC test growth score ([1]; 30% preservative, 7 day): +/−
MBC test growth score ([1]; 30% preservative, 14 day): +/−
MBC test growth score ([1]; 40% preservative, 8 hour): +
MBC test growth score ([1]; 40% preservative, 24 hour): +
MBC test growth score ([1]; 40% preservative, 48 hour): +/−
MBC test growth score ([1]; 40% preservative, 72 hour): +/−
MBC test growth score ([1]; 40% preservative, 7 day): +/−
MBC test growth score ([1]; 40% preservative, 14 day): 28
MBC test growth score ([1]; 50% preservative, 8 hour): +
MBC test growth score ([1]; 50% preservative, 24 hour): +
MBC test growth score ([1]; 50% preservative, 48 hour): +/−
MBC test growth score ([1]; 50% preservative, 72 hour): +/−
MBC test growth score ([1]; 50% preservative, 7 day): +/−
MBC test growth score ([1]; 50% preservative, 14 day): 25
MBC test growth score ([1]; 60% preservative, 8 hour): +
MBC test growth score ([1]; 60% preservative, 24 hour): +
MBC test growth score ([1]; 60% preservative, 48 hour): +/−
MBC test growth score ([1]; 60% preservative, 72 hour): +/−
MBC test growth score ([1]; 60% preservative, 7 day): +/−
MBC test growth score ([1]; 60% preservative, 14 day): 23
MBC test growth score ([1]; 70% preservative, 8 hour): +
MBC test growth score ([1]; 70% preservative, 24 hour): +
MBC test growth score ([1]; 70% preservative, 48 hour): +/−
MBC test growth score ([1]; 70% preservative, 72 hour): +/−
MBC test growth score ([1]; 70% preservative, 7 day): 23
MBC test growth score ([1]; 70% preservative, 14 day): 18
MBC test growth score ([1]; 80% preservative, 8 hour): +
MBC test growth score ([1]; 80% preservative, 24 hour): +
MBC test growth score ([1]; 80% preservative, 48 hour): +/−
MBC test growth score ([1]; 80% preservative, 72 hour): +/−
MBC test growth score ([1]; 80% preservative, 7 day): 16
MBC test growth score ([1]; 80% preservative, 14 day): 12
MBC test growth score ([1]; 90% preservative, 8 hour): +
MBC test growth score ([1]; 90% preservative, 24 hour): +
MBC test growth score ([1]; 90% preservative, 48 hour): +/−
MBC test growth score ([1]; 90% preservative, 72 hour): +/−
MBC test growth score ([1]; 90% preservative, 7 day): 11
MBC test growth score ([1]; 90% preservative, 14 day): 9
MBC test growth score ([1]; 100% preservative, 8 hour): +
MBC test growth score ([1]; 100% preservative, 24 hour): +
MBC test growth score ([1]; 100% preservative, 48 hour): +/−
MBC test growth score ([1]; 100% preservative, 72 hour): +/−
MBC test growth score ([1]; 100% preservative, 7 day): 7
MBC test growth score ([1]; 100% preservative, 14 day): 6
effect on enzymatic activity of the three enzymes in the creatinine biosensor [2]: did not inactivate enzymatic activity
